Assay results taken from patent US9643933B2, “Compounds useful as antibiotic tolerance inhibitors” (priority 2013, dated 2017).
Where a name gives a salt, the structure may show the parent alone.

Tests used:
[1] = system: PQS; assay: PQS Inhibition Assay (24 Hour Incubation); type: cell-based, P. aeruginosa PA14 wild-type strain; conditions: Pseudomonas aeruginosa, PA14, 24 h, read-out: PQS (24 hr) IC50 (μM)
Protocol: Test compounds are dissolved in DMSO at 10 mM and stored at −20° C. until needed. Seven test concentrations from 0.0032 micromolar to 31.6 micromolar are used for each compound. P. aeruginosa PA14 wild-type strain is inoculated into 5 mL LB broth in a 15-mL sterile glass culture tube and incubated overnight at 37° C. under shaking (˜240 rpm). The overnight culture is then diluted in LB Broth to give an OD600=0.04 (T0 culture). Colony Forming Units (CFU)/mL of the overnight culture and T0 culture are determined by a series of 1:10 serial dilutions in sterile saline. 4×20 μL of each dilution is seeded on LB agar plates and incubated at 35±2° C. for 20 hours. CFU/mL is determined from the dilution that gives 2 to 50 colonies/20 μL.
For concentration response curve (CRC) experiments, internal standard (2-((5-nitro-1H-indol-2-yl)thio)-N-(4-phenoxyphenyl)acetamide)) and test compounds are serially diluted in DMSO to give 200 times of each final concentration (0.5% DMSO final), and 1 μL/well is dispensed in duplicate into 2-mL wells of a 96 well deep well plate. 200 μL/well of T0 culture is added to each internal standard/test compound well used to determine PQS control level. Wells containing only LB broth (blank wells) are also included in the plate.
The plate is sealed and incubated at 37° C. for 24 hours under shaking (˜700 rpm) using a microtiter shaker. At the end of the incubation period, 150 μL/well of the deep well plate culture are transferred in a new non-sterile plate, and 150 μL/well of methanol containing tetra-deuterated PQS (D4-PQS) and 2% acetic acid are added to each well. The plate is sealed, shaken at high speed for 5 minutes and centrifuged at 4,000 g for 40 minutes at room temperature. 100 μL/well of the supernatant is then transferred to glass vials (vials crimp 0.2 mL) and kept at 4° C. until LC-MS/MS analysis.
PQSs quantification is carried out by analyzing samples in discrete batches together with spiked standards and blank samples.
Calibration curves are constructed from PQS standards, and respective deuterated PQS is used as an Internal Standards (IS) to calculate the concentration of analytes in the sample and improve the precision of the assay. The back-calculated concentrations of the calibration standards from the calibration curve shall be within ±20% of the nominal values, the range of the analytical method is determined, and the lower and upper limit of quantification specified.
Liquid chromatography separations are performed using an Agilent HP1100 system (Agilent Technologies) coupled with a CTC PAL Autosampler (CTC Analytics AG). Chromatographic retention is obtained using a monolithic column (Chromolith® RP-18, 50×4.6 mm). The solvent system consists of water containing 0.1% (v/v) formic acid (A) and acetonitrile containing 0.1% (v/v) formic acid (B). The gradient elution profile is chosen as follows: 0 min: 70% A (1500 μL/min), 0.3 min: 70% A (1500 μL/min), 1.3 min: 5% A (2500 μL/min), 1.6 min: 5% A (2500 μL/min).
The MS/MS analysis is performed with an API4000 series mass spectrometer (AB Sciex™) operating in Multiple Reaction Monitoring (MRM) mode and equipped with a TIS ion source. The specific ions monitored are PQS (m/z 260→m/z 175) and D4-PQS (m/z 264→m/z 179). The computer systems used in this study to acquire and quantify data may be an Analyst™ v1.5.
PQS in the presence of different concentrations of test compound are expressed as percentage of inhibition of the basal level in control samples. Curve fitting and IC50 estimations are carried out using a four parameter logistic model using GraphPad Prism v.5 program.

[2] = system: Pyocyanin; assay: Pyocyanin Inhibition Assay; type: cell-based, P. aeruginosa, strain PA14; conditions: Pseudomonas aeruginosa, PA14, 24 h, read-out: Pyocyanin Inhibition No. IC50 (μM)
Protocol: Test compounds are dissolved in DMSO at 10 mM and stored at −20° C. until needed. Seven test concentrations from 0.0032 micromolar to 31.6 micromolar are used for each compound.
P. aeruginosa, strain PA14, is inoculated into 5 mL of LB broth in a 15-mL sterile glass culture tube and incubated overnight at 37° C. under shaking (˜240 rpm). The overnight culture is then diluted in LB Broth to give an OD600=0.04 (T0 culture). Colony Forming Units (CFU)/mL of the overnight culture and T0 culture are determined by a series of 1:10 serial dilutions in sterile saline. 4×20 μL of each dilution is seeded on LB agar plates and incubated at 35±2° C. for 20 hours. CFU/mL is determined from the dilution that gives 2 to 50 colonies/20 μL.
For concentration response curve (CRC) experiments, internal standard, 2-((5-nitro-1H-indol-2-yl)thio)-N-(4-phenoxyphenyl)acetamide, a compound previously identified as an MvfR inhibitor (see Example 1 of US 2014-0066454 (WO 2012/116010)), and test compounds are serially diluted in DMSO to 200 times each final concentration (0.5% DMSO fmal), and 1 μL/well is dispensed in duplicate into 2 mL wells of a 96-well deep well plate. 200 μL/well of T0 culture are added to each internal standard/test compound well. Wells containing only T0 culture (200 200 μL/well) are used to determine pyocyanin control level and wells containing only LB broth (blank wells) are also included in the plate.
The plate is sealed and incubated at 37° C. under shaking (˜700 rpm) using a microtiter shaker for 24 hours. At the end of the incubation period, the plate is centrifuged at 4,000 g for 40 minutes at room temperature, 100 μL/well of the supernatant is transferred to a 96-microtiter PS flat-bottom plate, and absorbance at 690 nm is determined using SPECTROstar® Nano microplate reader. Pyocyanin concentration (M) is determined using the equation C=A690/(ε×d), where ε is the Pyocyanin extinction coefficient, at A690 nm ε is 4,310 M^−1 cm^−1 and d is the experimentally derived pathlength. The level of pyocyanin in the presence of test compound is expressed as percentage of inhibition with respect to the control. Curve fitting and IC50 determination were carried out using a four-parameter logistic model using GraphPad Prism v.5.

Compound	IC50 [1] [µM]	IC50 [2] [µM]
Cn1c(SCC(=O)Nc2ccc(Oc3ccccc3)cc2)nc2cc([N+](=O)[O-])ccc21 [Compound 23]	> 10	1 to 10
Cc1ccc(Oc2ccc(NC(=O)CSc3nc4cc(Cl)ccc4[nH]3)cc2)cn1 [Compound 80, 2-((5-chloro-1H-benzo[d]imidazol-2-yl)thio)-N-(4-((6-methylpyridin-3-yl)oxy)phenyl)acetamide]	< 1	< 0.1
Cc1cc(F)ccc1NC(=O)CNc1ccc(C#N)cc1 [Compound 154]	> 10	> 10
O=C(CSc1nc2cc(OC(F)F)ccc2[nH]1)Nc1ccc(Cl)cc1 [Compound 95]	> 10	1 to 10
N#Cc1ccc(C(=O)NCCSc2nc3cc(Cl)ccc3[nH]2)cc1 [Compound 88, N-(2-((5-chloro-1H-benzo[d]imidazol-2-yl)thio)ethyl)-4-cyanobenzamide]	> 10	> 10
COC(=O)c1ccc2[nH]c(SCC(=O)Nc3ccc(C#N)cc3)nc2c1 [Compound 112]	> 10	> 10
O=C(CSc1nc2ccc(Cl)cc2[nH]1)Nc1ccc(F)cc1F [Compound 144]	> 10	1 to 10
N#Cc1ccc(NC(=O)CCc2nc3ccc([N+](=O)[O-])cc3[nH]2)cc1 [Compound 148, N-(4-cyanophenyl)-3-(6-nitro-1H-benzo[d]imidazol-2-yl)propanamide]	5 to 10	1 to 10
O=C(NCCSc1nc2cc(Cl)ccc2[nH]1)c1ccc(Oc2cccnc2)cc1 [Compound 87, N-(2-((5-chloro-1H-benzo[d]imidazol-2-yl)thio)ethyl)-4-(pyridin-3-yloxy)benzamide]	> 10	> 10
O=C(CNc1cccc(F)c1)Nc1cccc(Oc2ccccc2)c1 [Compound 158]	> 10	> 10
O=C(CSc1nc2cc(Cl)ccc2[nH]1)Nc1ccc(Oc2ccncc2)cc1 [Compound 76, 2-((5-chloro-1H-benzo[d]imidazol-2-yl)thio)-N-(4-(pyridin-4-yloxy)phenyl)acetamide]	< 1	< 0.1
CN(C)C(=O)Oc1ccc2[nH]c(SCC(=O)Nc3ccc(Cl)cc3)nc2c1 [Compound 136]	> 10	> 10
O=C(CCc1nc2ccc([N+](=O)[O-])cc2[nH]1)Nc1ccc(Cl)cc1 [Compound 134, N-(4-chlorophenyl)-3-(6-nitro-1H-benzo[d]imidazol-2-yl)propanamide hydrochloride]	1 to 5	1 to 10
N#Cc1ccc(NC(=O)CNc2nc3cc(Cl)ccc3o2)cc1 [Compound 75, 2-((5-chlorobenzo[d]oxazol-2-yl)amino)-N-(4-cyanophenyl)acetamide]	> 10	> 10
N#Cc1ccc(NC(=O)CSc2nc3ccc(-c4ncccn4)cc3[nH]2)cc1 [Compound 113]	> 10	> 10
O=S(=O)(CSc1nc2cc(Cl)ccc2[nH]1)Nc1ccc(Oc2cccnc2)cc1 [Compound 91, 1-((5-chloro-1H-benzo[d]imidazol-2-yl)thio)-N-(4-(pyridin-3-yloxy)phenyl)methanesulfonamide]	> 10	> 10

Compound	IC50 [1] [µM]	IC50 [2] [µM]
O=C(CNc1nc2ccc(Cl)cc2s1)Nc1ccc(Oc2cccnc2)cc1 [Compound 73, 2-((6-chlorobenzo[d]thiazol-2-yl)amino)-N-(4-(pyridin-3-yloxy)phenyl)acetamide]	> 10	> 10
N#Cc1ccc(NC(=O)CSc2nc3ccc(-n4cccn4)cc3[nH]2)cc1 [Compound 117]	> 10	1 to 10
O=C(CNc1nc2ccccc2[nH]1)Nc1ccc(Oc2cccnc2)cc1 [Compound 151]	> 10	> 10
N#Cc1cccc(NC(=O)CSc2nc3cc(Cl)ccc3[nH]2)c1 [Compound 138]	> 10	> 10
N#Cc1ccc(NC(=O)CSc2cc3cc(Cl)ccc3[nH]2)cc1 [Compound 90, 2-((5-Chloro-1H-indol-2-yl)thio)-N-(4-cyanophenyl)acetamide]	> 10	1 to 10
Cc1cncc(Oc2ccc(NC(=O)CSc3nc4cc(Cl)ccc4[nH]3)cc2)c1 [Compound 81, 2-(5-Chloro-1H-benzo[d]imidazol-2-ylthio)-N-(4-(5-methylpyridin-3-yloxy)phenyl)acetamide]	< 1	< 0.1
N#Cc1ccc(NC(=O)CNc2ccc(F)cc2)cc1 [Compound 155]	> 10	> 10
COc1ccc(NC(=O)CSc2nc3ccc(Cl)cc3[nH]2)cc1Cl [Compound 143]	5 to 10	1 to 10
O=C(CCc1nc2ccc(Cl)cc2o1)Nc1ccc(Oc2cccnc2)cc1 [Compound 92, 3-(6-chlorobenzo[d]oxazol-2-yl)-N-(4-(pyridin-3-yloxy)phenyl)propanamide]	> 10	> 10
O=C(COc1nc2ccc([N+](=O)[O-])cc2[nH]1)Nc1ccc(Cl)cc1 [Compound 150, N-(4-chlorophenyl)-2-((6-nitro-1H-benzo[d]imidazol-2-yl)oxy)acetamide]	> 10	1 to 10
N#Cc1ccc(NC(=O)CSc2nc3cc(C(=O)O)ccc3[nH]2)cc1 [Compound 106]	> 10	> 10
N#Cc1ccc(NCC(=O)Nc2ccc(F)c(F)c2)nc1 [Compound 157]	> 10	> 10
Cc1cc(NCC(=O)Nc2ccc(C#N)c(Cl)c2)ccc1Br [Compound 153]	> 10	> 10
N#Cc1ccc(NC(=O)CNc2ccc(Cl)cc2)cc1 [Compound 156]	> 10	> 10
O=C(CSc1nc2cc(Cl)ccc2[nH]1)Nc1ccc(Oc2cnccn2)cc1 [Compound 78, 2-((5-chloro-1H-benzo[d]imidazol-2-yl)thio)-N-(4-(pyrazin-2-yloxy)phenyl)acetamide]	< 1	< 0.1
CN(C)C(=O)Oc1ccc2[nH]c(SCC(=O)Nc3ccc(C#N)cc3)nc2c1 [Compound 135]	> 10	> 10
